What all share (experiment): […]-ATP peptide kinase assay with TLC, purified kinase
Type in all cases: biochemical

The target of assay [1] is T1, Itk (Homo sapiens, UniProt Q08881).
T1 sequence (Q08881 1-620): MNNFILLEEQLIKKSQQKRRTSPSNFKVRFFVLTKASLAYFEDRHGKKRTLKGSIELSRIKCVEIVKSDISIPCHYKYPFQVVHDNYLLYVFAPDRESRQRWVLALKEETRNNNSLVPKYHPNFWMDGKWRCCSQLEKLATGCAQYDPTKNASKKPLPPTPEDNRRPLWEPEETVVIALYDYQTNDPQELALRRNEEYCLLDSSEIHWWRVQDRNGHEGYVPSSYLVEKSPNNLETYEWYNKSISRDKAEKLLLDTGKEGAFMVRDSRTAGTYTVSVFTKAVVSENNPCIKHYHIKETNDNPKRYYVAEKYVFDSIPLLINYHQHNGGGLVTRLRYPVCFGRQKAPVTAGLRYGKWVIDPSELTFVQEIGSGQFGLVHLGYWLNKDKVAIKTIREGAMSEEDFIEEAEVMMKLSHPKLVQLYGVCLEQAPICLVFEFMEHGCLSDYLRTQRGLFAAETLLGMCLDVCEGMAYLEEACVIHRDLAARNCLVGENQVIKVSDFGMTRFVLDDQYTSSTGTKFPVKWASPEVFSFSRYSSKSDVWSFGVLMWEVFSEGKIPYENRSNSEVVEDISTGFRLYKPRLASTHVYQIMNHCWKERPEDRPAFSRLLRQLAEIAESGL

Assay [2] concerns the target Btk (Homo sapiens, UniProt Q06187).
Assay [3] has as its target Src (Homo sapiens, UniProt P12931).

Chain of Btk (Q06187 2-659): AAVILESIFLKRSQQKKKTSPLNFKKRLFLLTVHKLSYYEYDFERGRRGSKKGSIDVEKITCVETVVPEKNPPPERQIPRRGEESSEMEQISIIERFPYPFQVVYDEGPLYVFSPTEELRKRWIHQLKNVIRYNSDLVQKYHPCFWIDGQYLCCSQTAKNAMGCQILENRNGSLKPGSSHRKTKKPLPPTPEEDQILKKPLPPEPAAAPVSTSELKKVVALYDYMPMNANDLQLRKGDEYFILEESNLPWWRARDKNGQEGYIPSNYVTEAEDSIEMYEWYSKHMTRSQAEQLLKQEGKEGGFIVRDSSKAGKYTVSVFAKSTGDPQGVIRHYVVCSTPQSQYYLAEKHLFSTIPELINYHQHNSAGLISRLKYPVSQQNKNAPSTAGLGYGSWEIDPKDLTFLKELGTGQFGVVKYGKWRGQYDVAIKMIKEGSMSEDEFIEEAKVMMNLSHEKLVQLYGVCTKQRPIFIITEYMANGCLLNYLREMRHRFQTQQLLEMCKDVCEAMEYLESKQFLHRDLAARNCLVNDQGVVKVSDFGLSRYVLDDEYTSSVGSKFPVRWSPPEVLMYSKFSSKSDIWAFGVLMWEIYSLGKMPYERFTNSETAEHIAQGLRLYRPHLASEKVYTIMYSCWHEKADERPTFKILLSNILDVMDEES
Chain of Src (P12931 2-536): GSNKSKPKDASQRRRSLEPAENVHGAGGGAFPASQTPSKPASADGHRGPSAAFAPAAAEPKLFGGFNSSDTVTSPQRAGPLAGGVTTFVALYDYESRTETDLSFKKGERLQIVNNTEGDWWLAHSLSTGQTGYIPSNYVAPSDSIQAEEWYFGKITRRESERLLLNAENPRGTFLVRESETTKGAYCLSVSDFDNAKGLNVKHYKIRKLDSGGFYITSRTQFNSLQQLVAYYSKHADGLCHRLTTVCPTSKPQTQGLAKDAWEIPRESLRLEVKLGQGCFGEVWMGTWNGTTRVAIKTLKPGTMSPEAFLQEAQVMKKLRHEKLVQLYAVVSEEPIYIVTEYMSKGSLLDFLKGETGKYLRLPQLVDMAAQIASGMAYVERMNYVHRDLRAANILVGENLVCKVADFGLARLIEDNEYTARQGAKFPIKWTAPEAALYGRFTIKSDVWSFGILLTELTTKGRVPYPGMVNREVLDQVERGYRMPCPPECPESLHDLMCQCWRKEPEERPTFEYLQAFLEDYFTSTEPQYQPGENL

The term IC50 denotes the point on the concentration scale where inhibition reaches its midpoint. With `CC(C)Cc1nc2cc3c(cc2[nH]c1=O)nc(NC(=O)c1ccc(-c2ccncc2)cc1)n3CCCN1CCCCC1` [CTN06, N-(7-isobutyl-6-oxo-1-(3-(piperidin-1-yl)propyl)-5,6-dihydro-1H-imidazo[4,5-g]quinoxalin-2-yl)-4-(pyridin-4-yl)benzamide], in assay [1], the “33P-ATP peptide kinase assay with TLC, purified kinase” value is “CTN06 appears to have the strongest activity toward Btk and Etk, followed by Itk, another member in the same family”. Moreover, the IC50 was about 0.05 µM in assay [2] and about 5 µM in assay [3].

These data come from publication PMC4540187 (Cell Death & Disease, 2014).
